We go through 4 compounds from US5043332A, “Novel 11β-substituted -19-nor-steriods” (priority 1981, dated 1991).

This experiment addresses T1, Progestogen receptor of the uterus of rabbits (Oryctolagus cuniculus, UniProt P06186).
T1 construct: The uterus was removed, weighed and homogenized at 0° C; from tissue; host or cells: rabbit uterus, 105,000 g supernatant (estradiol-primed immature rabbits)
T1 sequence (P06186 1-930): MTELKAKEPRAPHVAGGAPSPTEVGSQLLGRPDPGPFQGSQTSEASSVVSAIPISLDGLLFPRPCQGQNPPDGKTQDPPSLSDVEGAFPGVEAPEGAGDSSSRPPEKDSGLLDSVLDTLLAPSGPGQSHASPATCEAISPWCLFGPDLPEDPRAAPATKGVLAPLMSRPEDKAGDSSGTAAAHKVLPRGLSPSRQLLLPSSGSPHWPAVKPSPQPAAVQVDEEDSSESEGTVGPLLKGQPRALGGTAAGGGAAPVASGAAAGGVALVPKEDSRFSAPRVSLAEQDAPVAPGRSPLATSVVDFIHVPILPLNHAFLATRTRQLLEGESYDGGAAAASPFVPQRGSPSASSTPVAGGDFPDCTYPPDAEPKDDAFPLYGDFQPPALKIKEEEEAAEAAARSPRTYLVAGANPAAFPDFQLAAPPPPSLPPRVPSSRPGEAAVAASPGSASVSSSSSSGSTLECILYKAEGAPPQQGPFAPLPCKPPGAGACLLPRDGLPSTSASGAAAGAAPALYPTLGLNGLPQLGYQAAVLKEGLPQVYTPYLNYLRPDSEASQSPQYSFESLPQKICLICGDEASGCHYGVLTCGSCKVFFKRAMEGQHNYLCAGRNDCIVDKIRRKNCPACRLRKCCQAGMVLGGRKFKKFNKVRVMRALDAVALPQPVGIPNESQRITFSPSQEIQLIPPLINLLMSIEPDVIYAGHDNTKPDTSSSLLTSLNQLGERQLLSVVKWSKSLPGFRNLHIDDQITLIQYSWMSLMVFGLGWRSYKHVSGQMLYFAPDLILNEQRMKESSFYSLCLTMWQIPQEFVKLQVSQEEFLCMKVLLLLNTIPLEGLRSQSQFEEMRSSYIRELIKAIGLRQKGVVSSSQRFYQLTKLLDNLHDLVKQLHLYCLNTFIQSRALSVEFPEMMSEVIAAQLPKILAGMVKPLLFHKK
Briefly: Progestogen receptor binding (displacement of tritiated product R). Further details: species or system rabbit. Particulars: for affinity for progestogen receptors (in words): conclusion; for relative affinity of tieing (ARL), Progestogen: second table. The method, then: C. Progestogen receptor of the uterus of rabbits
Immature rabbits weighing about 1 kg received a cutaneous application of 25 μg of estradiol and the animals were killed 5 days later. The uterus was removed, weighed and homogenized at 0° C. with a polytetrafluoroethylene-glass Potter, in a buffered TS solution [Tris 10. mM, 0.25M of saccharose, HCl-pH of 7.4] with 1 g of tissue per 50 ml of TS. […] The concentration of tied tritiated R (B) was then measured for each incubate by the technique of adsoprtion on carbon-dextran.
The calculation of the relative affinity of […] (ARL) was identical for all of the above receptor tests. One traced the following two curves: the percentage of tied tritiated hormone B/T as a function of the logarithm of the cold hormone concentration and B/T as a function of the logarithm of the concentration of the cold test product. One determined the line of the equation. [formula]
The intersection of the I50 line and the curves permits one to determine the concentrations of the cold hormone of the reference (CH) and the cold test compound (CX) which inhibit by 50% the tieing of tritiated hormone with the receptor. The relative affinity of tieing (ARL) of the test product was determined by the equation: [formula]

Structures are written as SMILES.

For `CC#C[C@]1(O)CC[C@H]2[C@@H]3CCC4=CC(=O)[C@H](C)CC4=C3[C@@H](c3ccc(N(C)C)cc3)C[C@@]21C` [Example 5, 2α-methyl-11β-(4-dimethylaminophenyl)-17α-(prop-1-ynyl)-Δ^4,9-estradiene-17β-ol-3-one], the “affinity for progestogen receptors (in words)” value was “very remarkable affinity”.
With `CN(C)c1ccc([C@H]2C[C@@]3(C)[C@@H](CC[C@@]3(O)C#Cc3ccccc3)[C@@H]3CCC4=CC(=O)CCC4=C32)cc1` [Example 29, 11β-[4-(N,N-dimethylamino)-phenyl]-21-phenyl-19-nor-17α-Δ^4,9-pregnadiene-20-yne-17β-ol-3-one], the “relative affinity of tieing (ARL), Progestogen” value (“relative affinity of tieing” for short) came to 41 (incubation 2 H at 0° C.) and 250 (incubation 24 H at 0° C.).
Take `CC#C[C@]1(O)CC[C@H]2[C@@H]3CCC4=CC(=O)CCC4=C3[C@@H](c3ccc(N(C)C)cc3)C[C@@]21C` [Example 19, 11β-[4-(N,N-dimethylamino)-phenyl]-17α-(prop-1-ynyl)-Δ^4,9-estradiene-17β-ol-3-one]: the “affinity for progestogen receptors (in words)” value is “very remarkable affinity”.
On to `CC#C[C@]1(O)CC[C@H]2[C@@H]3CCC4=CC(=O)CCC4=C3[C@@H](c3ccc([N+](C)(C)[O-])cc3)C[C@@]21C` [Example 35, N-oxide of 11β-[4-(N,N-dimethylamino)-phenyl]-17α-(prop-1-ynyl)-Δ^4,9-estradiene-17β-ol-3-one], for which the “relative affinity of tieing” value (incubation 2 H at 0° C.) is 1,1 and the “relative affinity of tieing” value (incubation 24 H at 0° C.) is on record as 2,5.
